Measured values reported in patent US6303612A, “Derivatives of hydroxyphenylsulfanylbenzoic and hydroxphenylsulfanylarylacetic acids” (Leciva, A.S., priority 1998, dated 2001).
Like-named read-outs stand apart in the source and are kept apart here.

Tests used:
[1] = system: LTB4 production in rat polymorphonuclear cells; assay: Ex vivo inhibition of LTB4 production (LTB4 biosynthesis); format: cell-based; conditions: for IC50: Rattus norvegicus, read-out: Inh. of LTB4 biosynth., IC50; for Inh. of LTB4 biosynth., %: at 30 μg (%/μg)
[2] = target: LTB4 receptor (Cavia porcellus, UniProt H0VYV8); assay: LTB4 receptor binding study; conditions: 3H-LTB4, guinea-pig spleen membranes; for inhibition at 20 µM: read-out: Inh. of LTB4 rec. binding, %
Method in brief: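 Male guinea-pig spleen membranes (2 mg) incubated with 0.3 nM ^3H-LTB4 for 30 min at 25 °C; nonspecific binding defined with 0.1 μM LTB4. Bound ligand collected by GF/C filtration, counted by liquid scintillation to give specific binding.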

[3] = target: T1, LTD4 receptor (Cavia porcellus, UniProt Q2NNR5); assay: LTD4 receptor binding study; conditions: 3H-LTD4, guinea-pig lung membranes; for IC50: read-out: Inh. of LTD4 rec. binding, IC50; for inhibition at 100 µM: read-out: Inh. of LTD4 rec. binding, %
T1 construct: The membrane fraction was prepared from male guinea-pig lungs; from tissue; host or cells: male guinea-pig lung membranes
T1 sequence (Q2NNR5 1-340): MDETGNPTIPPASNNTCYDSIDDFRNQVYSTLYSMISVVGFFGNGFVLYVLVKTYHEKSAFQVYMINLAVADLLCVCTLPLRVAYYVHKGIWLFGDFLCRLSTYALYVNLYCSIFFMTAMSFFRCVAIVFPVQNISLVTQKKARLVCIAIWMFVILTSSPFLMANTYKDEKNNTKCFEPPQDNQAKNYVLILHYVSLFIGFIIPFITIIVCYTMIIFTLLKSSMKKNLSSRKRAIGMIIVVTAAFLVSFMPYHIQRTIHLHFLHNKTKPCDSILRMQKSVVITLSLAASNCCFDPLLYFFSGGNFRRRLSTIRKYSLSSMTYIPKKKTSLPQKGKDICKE
Method in brief: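 Guinea-pig lung membranes (male animals) were incubated with 0.4 nM ³H-LTD4 for 60 min at 25 °C. Nonspecific binding was defined with 0.1 μM LTD4. Bound radioactivity was measured after filtration and washing.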

[4] = system: peroxidation of lipids from the hepatic cells membranes; assay: Antioxidant effect in vitro; format: biochemical; conditions: at 100 μg
Description: Antioxidant Effect in vitro
The end-product, malonic dialdehyde, was transformed to coloured complex with thiobarbituric acid and determined spectrophotometrically. The antioxidant effect was expressed in % of peroxidation inhibition in the presence of the compound tested in comparison to a control sample.

[5] = system: Wistar-Han rats; assay: Inhibition of carrageenan edema; format: in vivo; conditions: Rattus norvegicus, dose 100 mg/kg; read-out: CE: inhibition of carrageenan-induced edema, % of inh.
[6] = system: male mice; assay: Inhibition of arachidonic acid-induced ear inflammation in mice; format: in vivo; conditions: Mus musculus, po, 1 h
Method in brief: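 Compounds given orally 1 h before ear inflammation was induced in male mice with 20 µl arachidonic acid in acetone (100 mg/ml). Animals killed 1 h after induction. Ear hyperemia and ear-lobe weight assessed against the vehicle-treated contralateral ear.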

[7] = system: bronchospasm induced by ovalbumin; assay: Inhibition of bronchospasm induced by ovalbumin; format: in vivo
Protocol: (§1) Inhibition of Allergic Bronchospasm Induced by […] (Compound 48/80 or Ovalbumin, Respectively)
(§2) The modified method of Kreutner W. et al (Krelutner W. et al.: Agents Actions 28, 253 (1989)) was used. Bronchoconstrictioin was induced by intravenous injection of 1 μg/kg LTD4 (3 mg/kg of compound […] or 0.35 mg/kg of ovalbumin, respectively). In the case of oval-bumin, the animals were senzitized by intraperitoneal injection of ovalbumin (100 mg/kg) 14 days before induction. The compounds tested were applied 5 min before the administration of the inductor; the vehiculum used for the application of compound tested was administered to the control group of animals. The tracheal pressure was determined in the intervals of 2, 4 and 10 minutes after induction. The effect was expressed in percentage inhibition of bronchospasm relative to the untreated control.

[8] = system: bronchospasm induced by LTD4; assay: Inhibition of bronchospasm induced by LTD4; format: in vivo
Protocol: as §1, §2

[9] = system: bronchospasm induced by histamine liberator 48/80; assay: Inhibition of bronchospasm induced by histamine liberator 48/80; format: in vivo; conditions: dose 100 mg/kg
Protocol: as §1, §2

Chain of LTB4 receptor (H0VYV8 1-348): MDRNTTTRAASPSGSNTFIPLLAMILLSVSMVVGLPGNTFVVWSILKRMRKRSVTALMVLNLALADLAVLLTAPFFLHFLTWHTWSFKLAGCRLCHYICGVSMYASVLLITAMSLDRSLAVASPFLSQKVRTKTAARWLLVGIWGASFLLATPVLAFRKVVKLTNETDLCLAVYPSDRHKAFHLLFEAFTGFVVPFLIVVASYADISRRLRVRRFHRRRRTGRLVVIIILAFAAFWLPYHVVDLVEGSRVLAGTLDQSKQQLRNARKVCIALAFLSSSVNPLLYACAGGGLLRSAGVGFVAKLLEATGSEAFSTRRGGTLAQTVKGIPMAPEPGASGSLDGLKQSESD

IC50 [1]	IC50 ([2]; read-out: Inh. of LTB4 rec. binding, IC50)	inhibition at 20 µM [2]	IC50 [3]	inhibition at 100 µM [3]	SMILES	Inh. of LTB4 biosynth., % [1]	Antiox. effect, % of peroxidation inhibition [4]	inhibition in vivo at 100 mg/kg [5]	inhibition in vivo at 200 mg/kg ([6]; values with mark n: p > 0.05, read-out: Ear edema, D: edema of ear lobe, % of inh.)	inhibition in vivo at 200 mg/kg ([6]; values with mark n: p > 0.05, read-out: Ear edema, E: hyperemia of ear lobe, % of inh.)	inhibition in vivo at 100 mg/kg ([7]; 2 min)	inhibition in vivo at 100 mg/kg ([7]; 4 min)	inhibition in vivo at 100 mg/kg ([7]; 10 min)	inhibition in vivo at 100 mg/kg ([8]; 2 min)	inhibition in vivo at 100 mg/kg ([8]; 4 min)	inhibition in vivo at 100 mg/kg ([8]; 10 min)	Inhibition of bronchospasm induced by histamine liberator 48/80 ([9]; 2 min)	Inhibition of bronchospasm induced by histamine liberator 48/80 ([9]; 4 min)	Inhibition of bronchospasm induced by histamine liberator 48/80 ([9]; 10 min)
< 0.01 µg/mL	7.1 µM	85%	16 µM	69%	O=C(O)c1ccccc1Sc1cccc(OCCCN2CCN(Cc3ccc(Cl)cc3)CC2)c1 [Compound 12, Bis-hydrogenmaleate of 2-(3-(3-(1-(4-Chlorobenzyl)piperazin-4-yl)propoxy)-phenylsulfanyl)benzoic Acid]	100%	17%	27%	18%	7%	71%	73%	90%	9%	41%	60%	77%	78%	85%
7.6 µg/mL		28%	41 µM	79%	O=C(O)c1ccccc1Sc1ccc(OCCCN2CCN(Cc3ccc(Cl)cc3)CC2)cc1 [Compound 13, Dimethanesulfonate of 2-(4-(3-(1-(4-Chlorobenzyl)piperazin-4-yl)-propoxy)phenylsulfanyl)benzoic Acid]	100%					46%	35%	51%	6%	38%	54%	84%	82%	69%
